Test results from publication PMC11859264, “Discovery of a Novel Multitarget Analgesic Through an In Vivo-Guided Approach” (Pharmaceuticals, 2025).

Columns and labels:
Cytotoxicity assay (MTT) = type: cell-based; settings: mouse, HT-22 hippocampal neuronal cells, HT-22 cells, read-out: cell viability relative to the untreated control group
Protocol: In the in vitro toxicity study, we initially evaluated the cytotoxic potential of compound 29 using a hippocampal neuronal cell line (HT-22), a commonly used model for assessing neurotoxicity. Cell viability was determined after exposure to compound 29 at a concentration of 10 μM.
HT-22 (mouse hippocampal cells) were cultured in Dulbecco’s Modified Eagle’s Medium (DMEM, GIBCO) supplemented with 10% (v/v) fetal bovine serum and antibiotics (100 µg/mL penicillin/streptomycin mix) in a humidified atmosphere at 37 °C with 5% CO2. A total of 5000 HT-22 cells per well were seeded into a clear 96-well plate one day prior to the assay. On the day of the experiment, the medium was removed, and the cells were treated with 25 µL of each compound at a concentration of 10 µM. The plates were incubated at 37 °C for 18 h. Subsequently, 15 µL of 3-[4,5-dimethylthiazol-2-yl]-2,5-diphenyltetrazolium bromide (MTT) solution (5 mg/mL) was added to each well, and the plates were incubated for an additional 3 h. The resulting formazan crystals were dissolved in dimethyl sulfoxide (DMSO), and the absorbance at 570 nm was measured using a microplate reader (Sunrise, TECAN). Optical density (OD) values from each well were normalized by subtracting the vehicle control, and cell viability was calculated by considering the signal from the vehicle control as 100%.

hERG [1] = molecular target: T1, hERG (Homo sapiens, UniProt Q12809); assay: biochemical
[2] = molecular target: T2, Transporter, Serotonin (SERT) (Homo sapiens, UniProt P31645); assay: Radioligand binding, [3H] Paroxetine, Eurofins
T2 construct: host or cells: HEK-293 cells

[3] = In vivo pharmacokinetic study; set-up: species or system Sprague–Dawley rats; settings: rats; for AUC(0-inf) / AUC(0-t) / CL/F / Cmax / Tmax / half-life: male, Sprague-Dawley, rat, plasma
Protocol: The in vivo pharmacokinetics parameters of compound 29 were measured in rats over 24 h following intraperitoneal (IP) and oral (PO) administration (Figure 4). These experiments were conducted to evaluate the compound’s absorption, distribution, metabolism, and excretion profiles under different routes of administration. Male Sprague–Dawley rats (n = 3 per group, weight 200–250 g) were fasted overnight but had free access to water. All animal experiments were conducted in accordance with institutional guidelines. For intraperitoneal (IP) administration, compound 29 was dissolved in saline and DMSO, while for oral (PO) administration, the compound was suspended in 0.5% carboxymethyl cellulose (CMC). All solutions were freshly prepared and filtered before administration to ensure homogeneity. Compound 29 was administered at 5 mg/kg via intraperitoneal injection or at 10 mg/kg by oral gavage. […] Blood was collected into EDTA-coated tubes and centrifuged at 2000× g for 10 min at 4 °C to separate plasma. Plasma samples were stored at −80 °C until analysis. Before analysis, plasma samples were thawed on ice, and proteins were precipitated using acetonitrile containing an internal standard. The mixture was centrifuged, and the supernatant was collected for analysis. Plasma concentrations of compound 29 were determined using a validated LC-MS/MS method. […] Quantification was performed in Multiple Reaction Monitoring (MRM) mode using Xcalibur software (version 4.4). Pharmacokinetic parameters, including AUClast, AUCinf, Cmax, Tmax, t1/2, Cl/F, and Vd, were calculated using non-compartmental analysis (NCA) with Phoenix WinNonlin software 8.5.2 (Certara, Radnor, PA, USA).

[4] = Metabolic stability assay in liver microsomes; type: in vitro ADME; settings: 30 min
Protocol: In the in vitro metabolic stability study, the stability of compound 29 was evaluated using liver microsomes derived from both mouse and human sources. The primary objectives of this study were to determine the metabolic clearance rate of compound 29 over a defined time period, enabling an assessment of its intrinsic clearance. Microsomal incubations were performed, and the percentage of intact compound remaining was quantified at specific time points. […] The remaining substrate was quantified using the Nexera XR system (Shimadzu, Japan) and TSQ Vantage mass spectrometer (Thermo, Waltham, MA, USA). […] Metabolites were analyzed using the Multiple Reaction Monitoring (MRM) quantification mode in the Xcalibur software (version 4.4). The experiment was performed in duplicate with variability within 15%. Results were calculated as % remaining by comparing the test compound quantified after a 30 min reaction to the initial value at 0 min.

CYP2C9 = CYP2C9 (Homo sapiens, UniProt P11712); assay: in vitro; settings: microsomes, pH 7.4, CYP2C9 % of inhibition
hERG [5] = molecular target: T1, hERG; assay: in vitro
Serotonin 5-HT2A = Serotonin 5-HT2A (Homo sapiens, UniProt P28223); assay: Radioligand binding, [3H] Ketanserin, Eurofins
[6] = system: panel of 47 drug target molecules; assay: Screening against a panel of pain-related drug targets at 10 μM; type: binding
Protocol: To elucidate the mechanism of action of compound 29 in producing analgesic effects, its inhibitory effects were systematically evaluated through a screening process. The compound was tested at a concentration of 10 μM against a diverse panel of 47 drug target molecules that are closely associated with pain modulation pathways.
The screening of pain-related receptors for the mechanism of action study of compound 29 was conducted by outsourcing the experiment to Eurofins (https://www.eurofins.com, accessed on 30 July 2024). Methods employed in this study have been adapted from the scientific literature to maximize reliability and reproducibility. Reference standards were run as an integral part of each assay to ensure the validity of the results obtained. […] Where presented, IC50 values were determined by a non-linear, least squares regression analysis using MathIQTM (ID Business Solutions Ltd., Woking, Surrey, UK). Where inhibition constants (Ki) are presented, the Ki values were calculated using the equation of Cheng and Prusoff using the observed IC50 of the tested compound, the concentration of radioligand (*) employed in the assay, and the historical values for the KD of the ligand (obtained experimentally at Eurofins Panlabs, Inc.). Where presented, the Hill coefficient (nH), defining the slope of the competitive binding curve, was calculated using MathIQTM.

CYP3A4 = CYP3A4 (Homo sapiens, UniProt P08684); assay: in vitro; settings: microsomes, pH 7.4
Chain of CYP3A4 (P08684 whole entry): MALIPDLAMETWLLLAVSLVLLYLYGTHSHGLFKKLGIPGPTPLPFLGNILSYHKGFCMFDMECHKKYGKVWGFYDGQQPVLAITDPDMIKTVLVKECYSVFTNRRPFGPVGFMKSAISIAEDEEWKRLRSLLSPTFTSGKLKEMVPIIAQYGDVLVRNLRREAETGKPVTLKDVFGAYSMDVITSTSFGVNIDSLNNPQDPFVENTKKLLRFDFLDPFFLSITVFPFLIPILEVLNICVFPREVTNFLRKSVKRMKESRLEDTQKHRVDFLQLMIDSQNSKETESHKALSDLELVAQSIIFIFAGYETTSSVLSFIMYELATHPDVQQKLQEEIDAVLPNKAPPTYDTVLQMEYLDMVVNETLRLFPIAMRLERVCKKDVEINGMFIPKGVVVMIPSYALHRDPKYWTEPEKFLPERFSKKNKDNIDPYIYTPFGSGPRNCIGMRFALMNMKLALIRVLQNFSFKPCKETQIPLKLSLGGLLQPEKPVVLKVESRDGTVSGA

T2 sequence (P31645 whole entry): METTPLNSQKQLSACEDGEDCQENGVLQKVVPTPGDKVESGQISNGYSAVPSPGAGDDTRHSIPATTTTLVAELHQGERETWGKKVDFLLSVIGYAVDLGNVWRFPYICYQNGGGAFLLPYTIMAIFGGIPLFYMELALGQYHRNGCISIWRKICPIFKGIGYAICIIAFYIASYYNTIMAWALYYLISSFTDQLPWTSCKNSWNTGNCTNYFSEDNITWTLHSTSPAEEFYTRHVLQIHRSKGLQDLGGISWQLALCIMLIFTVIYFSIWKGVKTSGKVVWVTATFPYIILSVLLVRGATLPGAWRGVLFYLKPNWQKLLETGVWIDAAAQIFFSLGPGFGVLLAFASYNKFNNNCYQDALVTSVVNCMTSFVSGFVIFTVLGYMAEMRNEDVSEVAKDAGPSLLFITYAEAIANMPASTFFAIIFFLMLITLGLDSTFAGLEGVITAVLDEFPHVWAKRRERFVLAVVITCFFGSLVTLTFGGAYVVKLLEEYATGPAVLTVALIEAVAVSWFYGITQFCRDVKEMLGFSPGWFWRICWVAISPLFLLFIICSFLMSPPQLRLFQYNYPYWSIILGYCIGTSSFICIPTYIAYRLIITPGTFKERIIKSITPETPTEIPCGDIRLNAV
Chain of Serotonin 5-HT2A (P28223 whole entry): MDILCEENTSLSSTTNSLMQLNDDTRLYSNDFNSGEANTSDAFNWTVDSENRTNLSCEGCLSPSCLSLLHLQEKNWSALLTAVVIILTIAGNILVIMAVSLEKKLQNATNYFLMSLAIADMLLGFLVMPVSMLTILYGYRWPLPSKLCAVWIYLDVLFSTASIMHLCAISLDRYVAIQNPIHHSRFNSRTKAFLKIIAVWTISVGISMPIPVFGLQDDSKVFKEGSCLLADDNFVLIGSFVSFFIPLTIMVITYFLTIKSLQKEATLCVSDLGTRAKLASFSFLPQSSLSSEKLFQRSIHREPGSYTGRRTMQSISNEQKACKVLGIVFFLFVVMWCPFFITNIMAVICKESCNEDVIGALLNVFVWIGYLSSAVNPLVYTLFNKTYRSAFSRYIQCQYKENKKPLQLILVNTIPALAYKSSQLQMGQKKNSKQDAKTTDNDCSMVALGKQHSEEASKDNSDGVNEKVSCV
T1 sequence (Q12809 whole entry): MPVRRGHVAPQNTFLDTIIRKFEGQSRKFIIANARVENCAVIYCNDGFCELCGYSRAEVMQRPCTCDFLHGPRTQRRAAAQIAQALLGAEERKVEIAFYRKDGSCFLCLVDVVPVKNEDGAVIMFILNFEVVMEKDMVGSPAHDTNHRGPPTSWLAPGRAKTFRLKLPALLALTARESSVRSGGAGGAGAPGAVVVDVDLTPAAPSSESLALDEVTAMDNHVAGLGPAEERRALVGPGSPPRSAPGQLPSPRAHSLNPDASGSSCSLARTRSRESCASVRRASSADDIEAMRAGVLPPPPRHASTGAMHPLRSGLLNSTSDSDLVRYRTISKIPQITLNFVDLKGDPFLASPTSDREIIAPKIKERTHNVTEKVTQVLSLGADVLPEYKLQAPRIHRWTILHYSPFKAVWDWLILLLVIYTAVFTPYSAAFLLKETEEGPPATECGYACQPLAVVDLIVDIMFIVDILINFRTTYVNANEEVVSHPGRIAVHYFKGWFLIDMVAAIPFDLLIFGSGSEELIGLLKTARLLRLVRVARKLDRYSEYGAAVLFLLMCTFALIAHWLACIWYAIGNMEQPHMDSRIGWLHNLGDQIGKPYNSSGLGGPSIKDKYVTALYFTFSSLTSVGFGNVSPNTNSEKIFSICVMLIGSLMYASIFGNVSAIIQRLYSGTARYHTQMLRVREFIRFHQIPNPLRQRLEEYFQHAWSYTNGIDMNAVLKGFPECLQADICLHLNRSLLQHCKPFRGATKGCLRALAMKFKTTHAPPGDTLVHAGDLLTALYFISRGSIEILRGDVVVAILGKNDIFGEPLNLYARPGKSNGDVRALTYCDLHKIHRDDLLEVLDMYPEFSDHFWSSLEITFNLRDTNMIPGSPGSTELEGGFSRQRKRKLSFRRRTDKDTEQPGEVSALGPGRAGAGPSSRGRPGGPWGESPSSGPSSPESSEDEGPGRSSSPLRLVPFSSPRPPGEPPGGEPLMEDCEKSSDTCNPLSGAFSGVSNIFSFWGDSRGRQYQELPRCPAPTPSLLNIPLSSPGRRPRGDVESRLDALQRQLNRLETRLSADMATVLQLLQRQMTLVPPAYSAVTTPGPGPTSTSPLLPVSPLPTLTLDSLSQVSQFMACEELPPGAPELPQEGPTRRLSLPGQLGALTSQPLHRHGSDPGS
Chain of CYP2C9 (P11712 whole entry): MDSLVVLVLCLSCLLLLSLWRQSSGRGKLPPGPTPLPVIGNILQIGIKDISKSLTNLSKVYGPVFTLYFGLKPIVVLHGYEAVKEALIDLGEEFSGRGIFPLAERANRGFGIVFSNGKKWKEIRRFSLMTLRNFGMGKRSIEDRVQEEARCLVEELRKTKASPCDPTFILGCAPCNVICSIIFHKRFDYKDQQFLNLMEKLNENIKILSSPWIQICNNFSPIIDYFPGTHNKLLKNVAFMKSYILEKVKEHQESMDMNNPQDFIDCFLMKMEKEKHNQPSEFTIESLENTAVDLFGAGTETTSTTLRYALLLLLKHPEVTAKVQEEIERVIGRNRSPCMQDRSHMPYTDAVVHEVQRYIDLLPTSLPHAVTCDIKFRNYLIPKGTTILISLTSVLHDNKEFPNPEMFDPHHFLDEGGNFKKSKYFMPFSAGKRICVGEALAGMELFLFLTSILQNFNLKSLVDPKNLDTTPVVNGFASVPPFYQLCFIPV

## N#Cc1ccc2[nH]cc(C(=O)NCCN3CCN(c4ccc5ccccc5n4)CC3)c2c1 [Compound 29, 5-Cyano-N-(2-(4-(quinolin-2-yl)piperazin-1-yl)ethyl)-1H-indole-3-carboxamide]
Cytotoxicity assay (MTT)
  viability at 18 h, 10 µM: > 100%
hERG [1]
  IC50: ~10000 nM
[2]; SERT
  nH (Hill coefficient): 0.84
[2]; SERT, Cheng and Prusoff
  Ki: 130 nM
[2]; SERT, human recombinant HEK-293 cells
  IC50: 780 nM
[2]; ratio of Ki values
  times more potent at SERT compared to fluoxetine: 13
[3]; IP, 5 mg/kg
  AUC(0-inf): 1380 ng·h/mL
  AUC(0-t): 1030 ng·h/mL
  CL/F: 64.7 mL/min/kg
  Cmax: 208 ng/mL
  Tmax: 2.83 h
  half-life: 3.49 h
  Vd: 17.9 L/kg
[3]; PO, 10 mg/kg
  AUC(0-inf): 430 ng·h/mL
  AUC(0-t): 407 ng·h/mL
  CL/F: 401 mL/min/kg
  Cmax: 113 ng/mL
  Tmax: 1.5 h
  half-life: 1.67 h
  Vd: 57.4 L/kg
[4]; pH 7.4, human liver microsomes
  remaining at 0.5 h, 1 µM: 55.6%
[4]; pH 7.4, mouse liver microsomes
  remaining at 0.5 h, 1 µM: 51.2%
CYP2C9
  inhibition at 15 min, 10 µM: < 50%
hERG [5]
  inhibition at 4 h, 10 µM: 52.7%
Serotonin 5-HT2A; Serotonin 5-HT2A
  nH (Hill coefficient): 0.88
Serotonin 5-HT2A; Serotonin 5-HT2A, Cheng and Prusoff
  Ki: 150 nM
Serotonin 5-HT2A; Serotonin 5-HT2A, human recombinant CHO-Ki cells
  IC50: 520 nM
Serotonin 5-HT2A; ratio of Ki values
  times the activity of reference compound ketanserin: 1.53
[6]
  number of targets with more than 50% inhibition: 16
CYP3A4
  inhibition at 15 min, 10 µM: 78%
